Test results reported in ChEMBL document CHEMBL2390891, “Discovery of new potent inhibitors for carbonic anhydrase IX by structure-based virtual screening” (Bioorg Med Chem Lett, 2013).

Experiments:
Carbonic anhydrase 1 = Carbonic anhydrase 1 (Homo sapiens, UniProt P00915); assay: Inhibition of full length carbonic anhydrase-1 in human erythrocytes; assay type: cell-based
Carbonic anhydrase 9 = Carbonic anhydrase 9 (Homo sapiens, UniProt Q16790); assay: Inhibition of GST-tagged recombinant carbonic anhydrase-9 catalytic domain (unknown origin)
Carbonic anhydrase 2 = Carbonic anhydrase 2 (Homo sapiens, UniProt P00918); assay: Inhibition of full length carbonic anhydrase-2 in human erythrocytes; assay type: cell-based

Sequence of Carbonic anhydrase 1 (P00915 whole entry, the tested form may be a part): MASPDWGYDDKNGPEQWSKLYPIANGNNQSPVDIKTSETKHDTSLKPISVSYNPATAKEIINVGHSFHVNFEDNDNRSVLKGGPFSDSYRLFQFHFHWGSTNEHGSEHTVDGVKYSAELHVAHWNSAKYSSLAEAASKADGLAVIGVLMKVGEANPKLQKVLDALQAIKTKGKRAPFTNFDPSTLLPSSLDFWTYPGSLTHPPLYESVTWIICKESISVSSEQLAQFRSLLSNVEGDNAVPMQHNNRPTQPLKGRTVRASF

| IC50 (Carbonic anhydrase 1) [nM] | IC50 (Carbonic anhydrase 9) [nM] | IC50 (Carbonic anhydrase 2) [nM] | Structure (SMILES) |
| --- | --- | --- | --- |
| 16.7 | 10.4 | 10.6 | NS(=O)(=O)c1cc(C(=O)NCCOc2ccccc2)c(Cl)cc1Cl |
|  | 2.86 |  | NS(=O)(=O)c1ccc(NC(=S)NC(=O)c2ccccc2)cc1 |
|  | 3.11 | 42 | NS(=O)(=O)c1ccc(-n2cccc2/C=C2/C(=O)NN(c3ccc(F)cc3)C2=O)cc1 |
|  | 4.53 |  | NS(=O)(=O)c1ccc(/N=C2/NC(=O)/C(=C/c3cc(O)ccc3Br)S2)cc1 |
|  | 14.9 |  | Cc1ccc(N2NC(=O)/C(=C/c3cccn3-c3ccc(S(N)(=O)=O)cc3)C2=O)cc1 |
| 173 | 18.8 | 153 | NS(=O)(=O)c1ccc(CCNCc2cccc3ccccc23)cc1 |
|  | 19.1 |  | CC1=NN(c2ccc(S(N)(=O)=O)cc2)C(=O)/C1=C\C=C\c1ccccc1 |
|  | 21.6 |  | NS(=O)(=O)c1ccc(NC(=O)c2cccc(N3C(=O)CCC3=O)c2)cc1 |
|  | 28.4 |  | NS(=O)(=O)c1cccc(NS(=O)(=O)c2ccc3c4c(cccc24)C(=O)N3)c1 |
|  | 68.5 |  | COc1ccc(Cl)cc1CNCCc1ccc(S(N)(=O)=O)cc1 |
|  | 199 |  | NS(=O)(=O)c1ccc(CNC2CC(=O)N(c3cccc(Br)c3)C2=O)cc1 (stereo not given) |
|  | 342 |  | COc1ccc(CNc2ccc(S(N)(=O)=O)cc2)cc1OC |
| 1190 | 588 | 809 | CC1=NN(c2cccc(S(N)(=O)=O)c2)C(=O)C1 |
